The structures appear in SMILES notation.

Common to all, as to assay: FRET-based coupled-enzyme protein kinase inhibition assay
Holding throughout (assay type): biochemical
Common to all, as to conditions: compound at 10 µM, 1% DMSO

One assay concerns the target T1, IKBKB (IKK beta) (Homo sapiens, UniProt O14920).
T1 sequence (O14920 1-756): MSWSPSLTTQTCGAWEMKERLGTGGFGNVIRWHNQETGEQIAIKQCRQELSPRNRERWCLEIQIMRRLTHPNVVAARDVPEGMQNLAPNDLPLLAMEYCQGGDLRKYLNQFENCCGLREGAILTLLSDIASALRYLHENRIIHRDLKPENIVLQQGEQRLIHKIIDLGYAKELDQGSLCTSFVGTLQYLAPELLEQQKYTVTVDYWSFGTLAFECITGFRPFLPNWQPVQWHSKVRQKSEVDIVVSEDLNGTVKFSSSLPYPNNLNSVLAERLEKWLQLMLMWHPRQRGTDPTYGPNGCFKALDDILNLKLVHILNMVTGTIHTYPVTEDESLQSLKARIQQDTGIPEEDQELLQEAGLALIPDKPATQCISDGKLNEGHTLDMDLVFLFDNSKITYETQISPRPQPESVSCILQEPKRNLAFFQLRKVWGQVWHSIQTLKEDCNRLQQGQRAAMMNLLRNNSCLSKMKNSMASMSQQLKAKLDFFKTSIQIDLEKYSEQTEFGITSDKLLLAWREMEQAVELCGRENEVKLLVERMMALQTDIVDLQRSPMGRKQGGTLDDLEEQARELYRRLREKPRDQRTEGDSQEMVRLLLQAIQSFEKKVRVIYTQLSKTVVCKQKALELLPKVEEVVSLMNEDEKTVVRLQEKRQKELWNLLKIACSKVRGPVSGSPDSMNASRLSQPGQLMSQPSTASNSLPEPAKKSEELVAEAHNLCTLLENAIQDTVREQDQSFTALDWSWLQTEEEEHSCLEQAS
The gist of the method:
(§1)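 Inhibition was quantified ratiometrically, as coumarin over fluorescein emission following 400 nm excitation, on a doubly labeled peptide whose cleavage by development reagent requires it to remain unphosphorylated. Kinase reactions ran 60 min at room temperature with ATP at apparent Km.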

For the next assay, the target named is MARK2 (Homo sapiens, UniProt Q7KZI7). The gist of the method:
as §1

A further assay deals with TEK (Tie2) (Homo sapiens, UniProt Q02763). The gist of the method: as §1
For another assay, the target named is SYK (Homo sapiens, UniProt P43405). Put shortly:
as §1

In a further assay the target is KDR (VEGFR2) (Homo sapiens, UniProt P35968). Put shortly: as §1
Sequence of KDR (VEGFR2) (P35968 20-1356, species assumed): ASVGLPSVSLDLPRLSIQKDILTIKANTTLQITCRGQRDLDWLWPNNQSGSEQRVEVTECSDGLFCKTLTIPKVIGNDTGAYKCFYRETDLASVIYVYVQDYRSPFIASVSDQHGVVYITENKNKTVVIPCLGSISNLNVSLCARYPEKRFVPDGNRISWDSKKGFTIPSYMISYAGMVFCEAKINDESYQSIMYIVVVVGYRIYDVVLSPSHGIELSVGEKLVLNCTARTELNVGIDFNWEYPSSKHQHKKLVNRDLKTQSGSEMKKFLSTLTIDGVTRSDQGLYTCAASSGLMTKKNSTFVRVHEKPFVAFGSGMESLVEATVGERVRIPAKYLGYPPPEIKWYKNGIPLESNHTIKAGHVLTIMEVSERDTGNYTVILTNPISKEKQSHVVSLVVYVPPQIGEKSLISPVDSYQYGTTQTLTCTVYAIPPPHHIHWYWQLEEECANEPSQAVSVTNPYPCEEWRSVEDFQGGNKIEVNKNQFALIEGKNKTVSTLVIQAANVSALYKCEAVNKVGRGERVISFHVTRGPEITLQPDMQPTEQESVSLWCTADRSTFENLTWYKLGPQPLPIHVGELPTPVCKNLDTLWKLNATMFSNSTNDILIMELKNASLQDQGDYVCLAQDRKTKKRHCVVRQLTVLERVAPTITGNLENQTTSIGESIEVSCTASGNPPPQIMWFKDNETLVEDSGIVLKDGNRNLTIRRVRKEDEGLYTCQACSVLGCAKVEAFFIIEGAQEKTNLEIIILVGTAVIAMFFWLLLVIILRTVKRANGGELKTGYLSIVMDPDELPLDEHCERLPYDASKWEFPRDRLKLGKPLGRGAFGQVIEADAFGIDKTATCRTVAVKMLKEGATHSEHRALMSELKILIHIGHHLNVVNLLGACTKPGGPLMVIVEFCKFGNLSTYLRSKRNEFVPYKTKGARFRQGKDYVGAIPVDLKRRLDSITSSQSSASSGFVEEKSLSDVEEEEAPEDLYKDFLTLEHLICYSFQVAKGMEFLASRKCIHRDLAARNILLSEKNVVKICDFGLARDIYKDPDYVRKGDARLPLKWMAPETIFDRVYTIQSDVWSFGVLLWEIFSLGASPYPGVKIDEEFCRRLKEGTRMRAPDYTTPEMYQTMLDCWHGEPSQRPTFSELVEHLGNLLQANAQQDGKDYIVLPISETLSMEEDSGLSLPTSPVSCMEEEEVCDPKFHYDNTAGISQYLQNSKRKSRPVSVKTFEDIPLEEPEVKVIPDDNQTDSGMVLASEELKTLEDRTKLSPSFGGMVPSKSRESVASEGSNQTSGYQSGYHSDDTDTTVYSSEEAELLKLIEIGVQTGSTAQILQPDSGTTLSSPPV
In another assay the target is FGFR1 (Homo sapiens, UniProt P11362). The gist of the method:
as §1

Another assay addresses PDGFRB (PDGFR beta) (Homo sapiens, UniProt P09619). Put shortly: as §1
A further assay concerns the target RPS6KA3 (RSK2) (Homo sapiens, UniProt P51812). Put shortly: as §1
In another assay the target is T2, PHKG2 (Homo sapiens, UniProt P15735).
T2 sequence (P15735 1-406): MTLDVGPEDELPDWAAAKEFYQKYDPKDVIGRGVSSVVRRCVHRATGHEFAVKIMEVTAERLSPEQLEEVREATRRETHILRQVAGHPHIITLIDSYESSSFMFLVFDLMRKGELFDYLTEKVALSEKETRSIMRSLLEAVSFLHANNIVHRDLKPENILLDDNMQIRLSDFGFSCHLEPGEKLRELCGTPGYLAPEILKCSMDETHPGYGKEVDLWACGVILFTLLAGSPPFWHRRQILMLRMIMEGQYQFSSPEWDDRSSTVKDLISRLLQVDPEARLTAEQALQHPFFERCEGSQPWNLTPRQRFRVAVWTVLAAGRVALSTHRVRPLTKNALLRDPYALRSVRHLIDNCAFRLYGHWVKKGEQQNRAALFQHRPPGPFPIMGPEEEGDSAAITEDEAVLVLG
Put shortly: as §1

The target in the next assay is PIM1 (Homo sapiens, UniProt P11309). The gist of the method:
as §1

Another assay concerns the target PAK4 (Homo sapiens, UniProt O96013). The gist of the method:
as §1

Sequence of PAK4 (O96013 whole entry, species assumed): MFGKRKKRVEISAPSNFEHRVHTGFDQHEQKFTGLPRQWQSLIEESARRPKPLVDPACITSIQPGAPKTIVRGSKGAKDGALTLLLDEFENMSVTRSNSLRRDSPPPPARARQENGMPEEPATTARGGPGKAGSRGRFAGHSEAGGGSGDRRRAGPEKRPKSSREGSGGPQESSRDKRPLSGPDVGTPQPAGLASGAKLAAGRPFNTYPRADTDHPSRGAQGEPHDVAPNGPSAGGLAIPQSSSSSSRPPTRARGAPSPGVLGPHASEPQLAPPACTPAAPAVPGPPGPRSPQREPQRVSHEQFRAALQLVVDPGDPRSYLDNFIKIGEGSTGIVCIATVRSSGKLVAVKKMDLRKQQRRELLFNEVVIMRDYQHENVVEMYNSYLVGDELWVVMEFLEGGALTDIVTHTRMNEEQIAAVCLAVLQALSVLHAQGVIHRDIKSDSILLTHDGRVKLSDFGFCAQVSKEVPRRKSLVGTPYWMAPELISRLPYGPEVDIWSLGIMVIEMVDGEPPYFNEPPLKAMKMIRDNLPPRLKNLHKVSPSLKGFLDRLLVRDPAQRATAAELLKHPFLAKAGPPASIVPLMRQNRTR
Sequence of FGFR1 (P11362 22-822, species assumed): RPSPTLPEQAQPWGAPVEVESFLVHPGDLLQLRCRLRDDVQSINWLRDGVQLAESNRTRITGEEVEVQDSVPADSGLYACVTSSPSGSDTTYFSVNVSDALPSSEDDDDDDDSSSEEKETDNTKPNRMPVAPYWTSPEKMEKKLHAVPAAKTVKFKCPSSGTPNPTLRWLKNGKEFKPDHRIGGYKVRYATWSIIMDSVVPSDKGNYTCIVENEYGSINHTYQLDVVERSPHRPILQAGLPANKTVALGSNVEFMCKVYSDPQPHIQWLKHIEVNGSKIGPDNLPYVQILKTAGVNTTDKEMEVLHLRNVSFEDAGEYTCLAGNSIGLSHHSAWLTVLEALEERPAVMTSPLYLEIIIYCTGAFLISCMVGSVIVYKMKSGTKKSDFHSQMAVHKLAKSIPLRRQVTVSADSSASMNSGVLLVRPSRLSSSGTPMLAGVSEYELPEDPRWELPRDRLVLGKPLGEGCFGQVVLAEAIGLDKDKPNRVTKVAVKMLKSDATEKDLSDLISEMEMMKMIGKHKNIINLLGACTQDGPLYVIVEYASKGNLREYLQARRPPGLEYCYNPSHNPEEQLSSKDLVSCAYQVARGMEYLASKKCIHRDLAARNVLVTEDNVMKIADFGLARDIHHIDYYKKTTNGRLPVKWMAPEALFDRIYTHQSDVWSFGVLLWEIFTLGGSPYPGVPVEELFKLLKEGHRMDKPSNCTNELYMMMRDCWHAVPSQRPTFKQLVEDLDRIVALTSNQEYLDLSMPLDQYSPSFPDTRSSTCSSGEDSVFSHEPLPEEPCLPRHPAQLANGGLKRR
Sequence of PDGFRB (PDGFR beta) (P09619 33-1106, species assumed): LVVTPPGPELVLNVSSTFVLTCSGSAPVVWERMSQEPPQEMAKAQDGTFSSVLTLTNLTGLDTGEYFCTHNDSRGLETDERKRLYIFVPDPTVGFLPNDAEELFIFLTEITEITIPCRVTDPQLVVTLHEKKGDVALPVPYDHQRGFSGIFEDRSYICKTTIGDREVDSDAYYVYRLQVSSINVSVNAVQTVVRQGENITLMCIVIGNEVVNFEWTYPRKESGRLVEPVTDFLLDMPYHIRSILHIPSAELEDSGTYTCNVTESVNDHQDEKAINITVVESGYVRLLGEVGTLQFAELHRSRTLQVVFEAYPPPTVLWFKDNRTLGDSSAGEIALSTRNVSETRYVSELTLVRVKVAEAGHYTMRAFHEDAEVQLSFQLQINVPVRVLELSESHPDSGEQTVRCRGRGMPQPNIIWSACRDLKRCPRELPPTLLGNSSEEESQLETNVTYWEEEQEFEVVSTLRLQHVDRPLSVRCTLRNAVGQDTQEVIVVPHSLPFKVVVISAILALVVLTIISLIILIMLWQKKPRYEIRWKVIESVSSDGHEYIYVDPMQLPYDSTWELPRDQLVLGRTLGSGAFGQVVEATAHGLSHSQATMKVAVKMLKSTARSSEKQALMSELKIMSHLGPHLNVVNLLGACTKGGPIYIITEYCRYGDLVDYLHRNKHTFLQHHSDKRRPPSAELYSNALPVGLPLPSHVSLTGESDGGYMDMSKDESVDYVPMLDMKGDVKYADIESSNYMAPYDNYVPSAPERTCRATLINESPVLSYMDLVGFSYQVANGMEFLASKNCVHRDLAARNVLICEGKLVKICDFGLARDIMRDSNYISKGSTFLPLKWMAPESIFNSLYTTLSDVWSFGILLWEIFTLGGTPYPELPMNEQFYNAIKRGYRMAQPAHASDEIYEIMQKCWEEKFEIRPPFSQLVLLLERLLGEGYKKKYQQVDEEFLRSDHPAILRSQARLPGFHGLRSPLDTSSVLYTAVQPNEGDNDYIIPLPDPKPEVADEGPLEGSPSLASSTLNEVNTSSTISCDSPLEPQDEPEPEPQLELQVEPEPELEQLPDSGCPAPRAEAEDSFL
Sequence of RPS6KA3 (RSK2) (P51812 whole entry, species assumed): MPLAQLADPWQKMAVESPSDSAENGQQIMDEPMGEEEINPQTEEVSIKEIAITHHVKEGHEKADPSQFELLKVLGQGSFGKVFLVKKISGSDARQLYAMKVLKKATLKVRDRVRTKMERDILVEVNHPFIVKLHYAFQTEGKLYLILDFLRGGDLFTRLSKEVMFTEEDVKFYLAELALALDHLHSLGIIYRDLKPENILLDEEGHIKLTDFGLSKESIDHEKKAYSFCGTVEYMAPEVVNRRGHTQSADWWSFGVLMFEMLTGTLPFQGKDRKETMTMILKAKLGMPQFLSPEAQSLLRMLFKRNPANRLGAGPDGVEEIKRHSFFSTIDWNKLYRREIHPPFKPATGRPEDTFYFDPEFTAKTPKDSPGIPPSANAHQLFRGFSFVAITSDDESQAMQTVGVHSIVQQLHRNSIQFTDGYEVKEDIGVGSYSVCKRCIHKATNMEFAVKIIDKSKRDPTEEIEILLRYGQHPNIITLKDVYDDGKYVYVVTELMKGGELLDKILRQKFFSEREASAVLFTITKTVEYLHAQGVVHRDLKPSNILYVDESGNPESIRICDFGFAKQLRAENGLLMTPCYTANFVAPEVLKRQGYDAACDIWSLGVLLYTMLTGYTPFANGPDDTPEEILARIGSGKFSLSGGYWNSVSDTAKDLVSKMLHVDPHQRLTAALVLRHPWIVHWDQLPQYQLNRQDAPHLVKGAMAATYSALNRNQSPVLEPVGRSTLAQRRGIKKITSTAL
Sequence of PIM1 (P11309 whole entry, species assumed): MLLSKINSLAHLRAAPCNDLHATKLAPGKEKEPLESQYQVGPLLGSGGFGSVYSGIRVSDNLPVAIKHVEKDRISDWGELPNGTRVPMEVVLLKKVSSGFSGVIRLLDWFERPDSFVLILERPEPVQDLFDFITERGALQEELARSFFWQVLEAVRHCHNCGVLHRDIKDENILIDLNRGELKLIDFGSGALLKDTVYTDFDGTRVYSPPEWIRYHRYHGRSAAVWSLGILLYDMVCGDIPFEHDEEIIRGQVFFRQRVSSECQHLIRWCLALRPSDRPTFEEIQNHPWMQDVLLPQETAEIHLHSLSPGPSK

By inhibition is commonly meant the relative decrease from the control value, in per cent. With `Nc1ncnc2c1ncn2[C@@H]1O[C@H](COC(=O)NCCCc2nc3ccccc3[nH]2)[C@@H](O)[C@H]1O` [Compound C1], the inhibition at 10 µM on IKBKB (IKK beta) was -10%; against MARK2, 3%; at TEK (Tie2), 3%; on SYK, 3%; on KDR (VEGFR2) it was -6%; at FGFR1, 21%. The inhibition at 10 µM on PDGFRB (PDGFR beta) was 1%; on RPS6KA3 (RSK2), 8%; against PHKG2, -3%; on PIM1 it was -2%; at PAK4 it was 15%.
Turning to `C[C@@H](NC(=O)OC[C@H]1O[C@@H](n2cnc3c(N)ncnc32)[C@H](O)[C@@H]1O)c1ccc(Cl)cc1` [Compound C4], the inhibition at 10 µM was -6% against IKBKB (IKK beta); 20% against MARK2; 12% against TEK (Tie2); 4% against SYK; 4% on KDR (VEGFR2); 6% at FGFR1. Also, the inhibition at 10 µM on PDGFRB (PDGFR beta) was 5%; against RPS6KA3 (RSK2) it was 9%; at PHKG2, -2%; on PIM1, -8%; at PAK4, 12%.
Turning to `Nc1ncnc2c1ncn2[C@@H]1O[C@H](COC(=O)NC[C@H](O)CO)[C@@H](O)[C@H]1O` [Compound C8], the inhibition at 10 µM on IKBKB (IKK beta) is -6%; against MARK2 it was 10%; at TEK (Tie2), -3%; at SYK, 7%; at KDR (VEGFR2) it was 0%; on FGFR1 it was 26%. The inhibition at 10 µM at PDGFRB (PDGFR beta) is 5%; at RPS6KA3 (RSK2), 19%; against PHKG2, -3%; against PIM1, 11%; against PAK4, 19%.
For `Nc1ncnc2c1ncn2[C@@H]1O[C@H](COC(=O)N2CCC[C@H]2CO)[C@@H](O)[C@H]1O` [Compound C9], the inhibition at 10 µM is -8% on IKBKB (IKK beta); 6% against MARK2; -4% on TEK (Tie2); -4% against SYK; -3% at KDR (VEGFR2); 3% against FGFR1. Further, the inhibition at 10 µM is -1% against PDGFRB (PDGFR beta); 1% against RPS6KA3 (RSK2); -4% against PHKG2; 3% on PIM1; 1% against PAK4.
Turning to `Nc1ncnc2c1ncn2[C@@H]1O[C@H](COC(=O)N[C@@H]2CCN(Cc3ccccc3)C2)[C@@H](O)[C@H]1O` [Compound C10], the inhibition at 10 µM was -11% against IKBKB (IKK beta); 8% against MARK2; 6% at TEK (Tie2); 1% against SYK; 8% against KDR (VEGFR2); 20% against FGFR1. The inhibition at 10 µM worked out at 7% against PDGFRB (PDGFR beta); 8% at RPS6KA3 (RSK2); 0% on PHKG2; 1% against PIM1; 14% at PAK4.
With `Nc1ncnc2c1ncn2[C@@H]1O[C@H](COC(=O)N2CCN(Cc3ccccc3)CC2CO)[C@@H](O)[C@H]1O` (stereo partly drawn) [Compound C13], the inhibition at 10 µM against IKBKB (IKK beta) is -7%; against MARK2, 11%; against TEK (Tie2) it was 5%; at SYK, 0%; at KDR (VEGFR2) it was -3%; against FGFR1, 5%. Besides, the inhibition at 10 µM is 6% against PDGFRB (PDGFR beta); 3% against RPS6KA3 (RSK2); 0% on PHKG2; 1% against PIM1; 7% against PAK4.
As to `CC(C)N1CCC(NC(=O)OC[C@H]2O[C@@H](n3cnc4c(N)ncnc43)[C@H](O)[C@@H]2O)CC1` [Compound C19], the inhibition at 10 µM was -6% on IKBKB (IKK beta); 7% on MARK2; 6% against TEK (Tie2); -1% against SYK; -10% against KDR (VEGFR2); 6% at FGFR1. Besides, the inhibition at 10 µM was 6% against PDGFRB (PDGFR beta); 1% against RPS6KA3 (RSK2); -3% against PHKG2; -7% against PIM1; 3% against PAK4.
`Nc1ncnc2c1ncn2[C@@H]1O[C@H](COC(=O)NCCN2CCCC2=O)[C@@H](O)[C@H]1O` [Compound C22]: the inhibition at 10 µM on IKBKB (IKK beta) is -13%; on MARK2, 8%; against TEK (Tie2), 0%; at SYK it was -8%; against KDR (VEGFR2), -7%; at FGFR1, 0%. Further, the inhibition at 10 µM against PDGFRB (PDGFR beta) is 4%; on RPS6KA3 (RSK2), 2%; against PHKG2 it was -6%; against PIM1 it was -6%; against PAK4 it was 7%.
For the molecule `Nc1ncnc2c1ncn2[C@@H]1O[C@H](COC(=O)N2CCN(CCc3ccccc3)CC2)[C@@H](O)[C@H]1O` [Compound C26], the inhibition at 10 µM at IKBKB (IKK beta) is -8%; on MARK2, 18%; on TEK (Tie2), -4%; at SYK, -4%; on KDR (VEGFR2), -3%; against FGFR1, 9%. Further, the inhibition at 10 µM is 1% against PDGFRB (PDGFR beta); 0% against RPS6KA3 (RSK2); -1% against PHKG2; -5% on PIM1; 6% at PAK4.
For `CN1CCN(CCNC(=O)OC[C@H]2O[C@@H](n3cnc4c(N)ncnc43)[C@H](O)[C@@H]2O)CC1` [Compound C46], the inhibition at 10 µM on IKBKB (IKK beta) is -3%; against MARK2 it was 4%; on TEK (Tie2) it was 0%; at SYK, 0%; against KDR (VEGFR2), -7%; on FGFR1, 9%. For the same molecule, the inhibition at 10 µM is 1% against PDGFRB (PDGFR beta); 6% at RPS6KA3 (RSK2); 0% against PHKG2; 8% on PIM1; 4% on PAK4.
For the molecule `Nc1ncnc2c1ncn2[C@@H]1O[C@H](COC(=O)N2CCC(Cc3ccc(F)cc3)C2)[C@@H](O)[C@H]1O` (stereo partly drawn) [Compound C66], the inhibition at 10 µM against IKBKB (IKK beta) is -11%; against MARK2, -4%; against TEK (Tie2), 4%; against SYK it was 1%; against KDR (VEGFR2), 3%; against FGFR1, 13%. For the same molecule, the inhibition at 10 µM against PDGFRB (PDGFR beta) is 4%; against RPS6KA3 (RSK2), 6%; against PHKG2, -2%; against PIM1, 7%; against PAK4, 10%.
In the case of `N#CCCN1CCN(C(=O)OC[C@H]2O[C@@H](n3cnc4c(N)ncnc43)[C@H](O)[C@@H]2O)CC1` [Compound C70], the inhibition at 10 µM on IKBKB (IKK beta) was -12%; at MARK2, 6%; against TEK (Tie2), 1%; against SYK, -1%; against KDR (VEGFR2), -12%; against FGFR1, 1%. In addition, the inhibition at 10 µM on PDGFRB (PDGFR beta) is 4%; on RPS6KA3 (RSK2), 2%; against PHKG2 it was 1%; at PIM1 it was 5%; against PAK4 it was 4%.
